The values below come from BindingDB's records for doi:10.1021/jm070556y (St. Jude Research Hospital, 2007).

For orientation: IC50 means the concentration that inhibits the measured activity by half. Read a low IC50 as higher potency.

Where only a bound is given, the exact number is not on record here.

Assay [1] deals with T1, Thyroid hormone receptor beta [209-461] (Homo sapiens, UniProt P10828).
T1 construct: 209-461
T1 sequence (P10828 whole entry): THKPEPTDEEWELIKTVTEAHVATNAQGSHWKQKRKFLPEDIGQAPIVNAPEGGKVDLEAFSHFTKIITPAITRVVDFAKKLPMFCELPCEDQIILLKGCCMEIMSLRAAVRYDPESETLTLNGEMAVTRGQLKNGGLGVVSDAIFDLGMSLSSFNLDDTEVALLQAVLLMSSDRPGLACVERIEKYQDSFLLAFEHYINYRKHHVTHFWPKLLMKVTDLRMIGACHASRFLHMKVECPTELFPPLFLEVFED
Briefly: Fluorescence Polarization (FP) Competition Assay. As for the experimental part: (§1) IC50 is the concentration of each compound required to inhibit 50% of the binding between the TR LBD and the SRC2-2 peptide using fluorescence polarization (FP) assay. The competition binding experiments were evaluated using PrismPad, and the IC50 values were obtained by fitting the data to an equation, Sigmoidal dose-response (variable slope) or four parameter logistic equation.
For orientation: Fluorescence polarisation rises when a labelled molecule tumbles more slowly, as on binding a larger partner.

For assay [2], the target named is T2, Thyroid hormone receptor alpha [148-410] (Homo sapiens, UniProt P10827).
T2 construct: 148-410
T2 sequence (P10827 whole entry): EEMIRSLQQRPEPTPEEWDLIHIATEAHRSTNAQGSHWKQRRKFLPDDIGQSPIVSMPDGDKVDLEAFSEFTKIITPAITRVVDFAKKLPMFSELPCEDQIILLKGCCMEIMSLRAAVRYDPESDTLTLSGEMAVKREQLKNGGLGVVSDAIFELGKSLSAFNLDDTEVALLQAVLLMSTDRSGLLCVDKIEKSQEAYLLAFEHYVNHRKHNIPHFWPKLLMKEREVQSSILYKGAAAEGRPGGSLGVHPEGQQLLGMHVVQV
Description: Fluorescence Polarization (FP) Competition Assay. As for the experimental part: as §1

As for `CCCCCCc1ccc(C(=O)CCN2CCCC2)cc1` [1-(4-hexylphenyl)-3-(pyrrolidin-1-yl)propan-1-one], the IC50 in assay [1] was determined as 2.7 µM; in assay [2] (pH 7.2, 22 °C) it was 4.3 µM. As for `C=CC(=O)OC1CCC(C(C)(C)CC)CC1` (centres undefined) [4-(2-methylbutan-2-yl)cyclohexyl prop-2-enoate], the IC50 was determined as 69.1 µM in assay [1] and 75.6 µM in assay [2]. Consider `C=CC(=O)Oc1ccc(C(C)(C)CC)cc1` [4-(2-methylbutan-2-yl)phenyl prop-2-enoate], for which the IC50 came out at 43.5 µM in assay [1] and 69.6 µM in assay [2] (pH 7.2, 22 °C). For the compound `C=CC(=O)Oc1ccc(NC(=O)CCC)cc1` [4-butanamidophenyl prop-2-enoate], the values for the IC50 in assay [1] and in assay [2] were 85.9 µM and over 100 µM, respectively. For the compound `C=CC(=O)Oc1ccc(CCCC)cc1` [4-butylphenyl prop-2-enoate], the IC50 came to 66 µM in assay [1] and 71 µM in assay [2] (pH 7.2, 22 °C). Take `C=CC(=O)Oc1ccc(CCCCCCC)cc1` [4-heptylphenyl prop-2-enoate]: the IC50 was found to be 10.5 µM in assay [1] and 23 µM in assay [2]. In the case of `C=CC(=O)Oc1ccc(CCCCCC)cc1` [4-hexylphenyl prop-2-enoate], the IC50 in assay [1] was 18.6 µM; in assay [2] it was 45.2 µM. In the case of `C=CC(=O)Oc1ccc(CCCCCCCC)cc1` [4-octylphenyl prop-2-enoate], the IC50 is 11.4 µM in assay [1] and 21.4 µM in assay [2].

With `C=CC(=O)Oc1ccc(CCCCC)cc1` [4-pentylphenyl prop-2-enoate], the IC50 came out at 33.9 µM in assay [1] and 60.9 µM in assay [2] (pH 7.2, 22 °C). For the compound `C=CC(=O)Oc1ccc(CCC)cc1` [4-propylphenyl prop-2-enoate], the IC50 in assay [1] is 100 µM. For `C=CC(=O)Oc1ccc2c(c1)CCCC2` [5,6,7,8-tetrahydronaphthalen-2-yl prop-2-enoate], the IC50 came out at 69.8 µM in assay [1] and 85.3 µM in assay [2]. Take `CCCCCCc1ccc(C(=O)/C=C/C(=O)O)cc1` [(2E)-4-(4-hexylphenyl)-4-oxobut-2-enoic acid]: the IC50 in assay [1] turned out to be 17.7 µM; in assay [2] (pH 7.2, 22 °C) it was 19.2 µM. Consider `C=CC(=O)Oc1ccccc1C(=O)OCCCCCC` [hexyl 2-(prop-2-enoyloxy)benzoate], for which the IC50 in assay [1] is 8.2 µM; in assay [2], 39.1 µM. On to `C=CC(=O)Oc1ccc(C(=O)OCCCCC)cc1` [pentyl 4-(prop-2-enoyloxy)benzoate], for which the values for the IC50 in assay [1] and in assay [2] were 55.8 µM and over 100 µM, respectively. The matching figures for `C=CC(=O)Oc1ccc(C(=O)OCCC)cc1` [propyl 4-(prop-2-enoyloxy)benzoate]: 61 µM and over 100 µM.
